Assay results reported in PMC10707468, “Pharmacokinetics of Novel Dopamine Transporter Inhibitor CE-123 and Modafinil with a Focus on Central Nervous System Distribution” (International Journal of Molecular Sciences, 2023).

How the values were obtained:
[1] = In vitro metabolic stability in human liver microsomes; assay type: in vitro ADME; details: for % of the parent drug remaining / half-life at 1 µM / microsomal CLint at 1 µM: 1 µM; for % of the parent drug remaining: 60 min incubation; for half-life at 1 µM / microsomal CLint at 1 µM: human, human liver microsomes, pH 7.4; for half-life at 1 µM: 0.5 mg/mL protein, read-out: half-life (t1/2); for microsomal CLint at 1 µM: read-out: intrinsic clearance (CLint)
Procedure: An in vitro metabolism assay to study the phase I metabolism in the HLMs was in-house-developed. Optimization of the protocol included the test compound concentration (1, 5, 10 m and 50 µM) and extraction solvents (ACN and MeOH). […] The metabolic assay was initiated by the addition of 10 mM NADPH to the reaction solution and terminated after 0, 2.5, 5, 15, 30, 45, and 60 min via the addition of 200 µL of ice-cold MeOH containing the IS solution. The samples were than vortexed and spun for 15 min (14,000× g, 4 °C). The supernatant was collected, evaporated to dryness using the Concentrator plus (Eppendorf), and reconstituted with 100 µL of ACN/0.1% FA in water 10:90 (v:v). To ensure that the assay was performing adequately, the incubation of 1 µM diazepam at the same assay conditions as described was conducted, and the formation of its metabolites temazepam and nordazepam was monitored. A negative control included the absence of NADPH, the test compound, or HLMs during assay. […] The metabolic stability curves of the tested compounds were established by plotting the incubation time against the natural logarithm of the % parent drug remaining. The slope (k) of the linear part was utilized for the in vitro half-life (t1/2, min) as ln2/k. The V (µL/mg) was calculated as the volume of the reaction solution (100 µL) divided by the protein amount in the incubation (0.5 mg). The protein amount was predetermined by the supplier and the content was checked by using a Pierce™ BCA Protein Assay Kit (Thermo Fisher Scientific, Vienna, Austria) for each freshly opened tube. The intrinsic clearance (CLint, µL/min/mg) was calculated according to the following equation:(7) CLint=0.693/t1/2·V […]

[2] = test system: cerebEND in vitro model of the blood–brain barrier; experiment: In vitro Transwell blood-brain barrier model based on mouse cell line cerebEND; assay type: in vitro ADME; details: for Clin (rate of BBB transport) / Clout (rate of BBB transport): parameter used in simulation; for Pe rat: scaled with BBB surface area 180 cm2, similar permeability in rat assumed
Text: Research on modafinil analogs has gained significant momentum in recent decades due to the compound’s unique pharmacological properties and potential therapeutic applications. The primary objectives of these studies were to identify modafinil analogs that can address a wide range of cognitive deficits and neurological conditions effectively, with a reduced risk of side effects. In our previous study, we reported a series of modafinil analogs with higher DA reuptake inhibition activity and higher selectivity for the DAT in comparison to modafinil. These improvements were achieved by making strategic modifications involving the substitution of the carboxamide moiety with five- and six-membered aromatic heterocycles. […] In addition, Kristofova et al. (2018) have used the mouse cell line cerebEND as an in vitro model to study the ability of CE-123 to cross an in vitro model of the blood–brain barrier (BBB). […] Yet, due to significant differences in the plasma pharmacokinetic (PK) profiles, governed primarily by differences in metabolism, direct comparison between two compounds after single IP dosing could be misleading.
Table S4. Parameters used in simulation exercise.
Fraction of un bound in unitless 0.252 0.797
Rate of BBB transport parameters*
Ext ent of BBB transport and intra-brain dist ribution
Unbound brain-t o-plasma unitless 0.46 0.097 concentrati on rat io, Kp,uu,brain
Unbound volume of mL/g brain 5.21 3.73 distribution in brain, Vu,brain
Additional parameters used
Infusi on rate mg/h 0.05 1.0
* Data of blood-brain barrier per meation of 100 µM CE-123 and modafinil across an in vitro Transw ell model based on mouse cell line cerebEND were included in the simulation. Experimental procedures were published previously The permeability coefficients w ere calculated according to the clearance principle deduct ing blank inserts without cells.
**Similar apparent permeability in human BBB cell culture model and rat endot helial cells was assumed.

[3] = test system: cerebEND in vitro model of the blood–brain barrier; details: 100 µM CE-123 and modafinil, Transwell cerebEND, blank inserts deducted; cited from earlier work
[4] = Equilibrium dialysis, plasma protein binding; assay type: in vitro ADME, rat; details: for free (unbound) in plasma / Fraction unbound in plasma, fu,plasma: rat plasma; for Fraction unbound in plasma, fu,plasma / fraction unbound at 5 h, 10 µM: 10 µM, 5 h, 37 °C, plasma with 10% DMF; for fraction unbound at 5 h, 10 µM: rat, undiluted rat plasma containing 10% DMF, pH 7.4, rat plasma, read-out: Fraction unbound in plasma, fu,plasma
Procedure: A Teflon 96-well plate (model HTD96b, HTDialysis LLC, Gales Ferry, CT, USA) was used in all tissue-binding experiments. Th evaluation of PPB was determined according to van Liempd et al. (2011) and BTB according to the previously published protocols. […] The whole brain tissue from three rats was individually homogenized in 9 volumes of phosphate-buffered saline (PBS), pH 7.4. […] Then, 100 µL of spiked plasma or brain tissue homogenate in triplicate was dialyzed against an equal volume of PBS, pH 7.4, for 5 h at 37 °C and 200 rpm. Furthermore, 50 µL was taken from both sides of the membrane at the end of incubation. The unbound fraction of the compounds in the plasma (fu,plasma) or in the diluted (D) brain homogenate (fu,hD) was calculated according to the following equation:(1) fu,plasma or fu,hD=Cbuffer/Ctissue where Cbuffer represents the concentration of the compound measured in the buffer and Ctissue is the concentration measured in the plasma or brain tissue homogenate. Due to dilution, fu,hD is usually higher than the actual fu,brain. Thus, fu,hD was corrected for the dilution factor (D), which is in this case 10 times. (2) fu,brain=fu,hD/D+fu,hD−D·fu,hD

| SMILES | % of the parent drug remaining ([1]; HLMs) [%] | metabolized ([1]; HLMs, 5, 10 and 50 µM) [%] | half-life at 1 µM ([1]; HLMs) [h] | microsomal CLint at 1 µM ([1]; HLMs) [µL/min/mg] | Clin (rate of BBB transport) [2] [L/h] | Clout (rate of BBB transport) [2] [L/h] | Pe rat [2] [mL/min] | Pe (permeability coefficient) [3] [×10⁻⁶ cm/s] | free (unbound) in plasma [4] [%] | Fraction unbound in plasma, fu,plasma [4] [unitless] | fraction unbound at 5 h, 10 µM [4] | fold faster metabolism compared to R-modafinil ([1]; HLMs) [fold] |
| --- | --- | --- | --- | --- | --- | --- | --- | --- | --- | --- | --- | --- |
| NC(=O)C[S@@+]([O-])C(c1ccccc1)c1ccccc1 [R-modafinil, reference compound] | 90 | ≤ 10 | 6.07 | 0.4 | 0.025 | 0.261 | 0.422 | 38.3 | 80 | 0.797 ± 0.15 | 0.79 |  |
| [O-][S@@+](Cc1cncs1)C(c1ccccc1)c1ccccc1 [S-CE-123] | 35 |  | 0.65 | 3.6 | 0.033 | 0.071 | 0.545 | 50 | 25 | 0.252 ± 0.023 | 0.25 | 9.3 |
